pEC50: −log10 of the molar value. Entries after “also recorded” stand apart in the source; their conditions may differ.
How the values were obtained:
HepG2 cytotoxicity = format: cell-based; conditions: human, HepG2 cells
C. parvum = experiment: NOD SCID gamma mouse model of established cryptosporidiosis, fecal oocyst shedding by qPCR; format: in vivo, NOD SCID gamma mice
Source text: FIG. 4A is a schematic of NOD SCID gamma (NSG) mouse model of established intestinal cryptosporidiosis. Intestinal C. parvum infection was established by oral gavage of ˜10^5 oocysts either 7 days (FIGS. 4B and C) or 14 days (FIG. 4D) prior to oral treatment with bicyclic azetidines, vehicle, or paromomycin (positive control). All data are the mean and SEM (n=4 mice per experimental group) of parasite shedding per mg of feces measured by qPCR with results for individual mice shown as superimposed data points. Data points for which no parasite DNA was detected are shown at the qPCR assay limit of detection (0.1 oocysts per mg feces).
NOD scid gamma mice (NOD.Cg-Prkdcscid Il2rgtmlWjl/Szj; Jackson Laboratory, Bar Harbor, Me.) (NSG) were used to model established Cryptosporidium infection. All NSG mouse studies were performed in compliance with animal care guidelines and with approval by the University of Vermont Institutional Animal Care and Use Committee. Mice were acquired at three to four weeks of age, and acclimatized for one week prior to infection by oral gavage of ˜10^5 C. parvum Iowa isolate (Bunch Grass Farms) oocysts. They were then treated at the specified times and dosages with each compound dissolved in 0.5% hydroxypropylmethyl cellulose, 0.5% Tween 80 (v/v) plus 5% DMSO.
This cryptosporidiosis infection model used 3-4 week old, freshly weaned, NOD SCID gamma mice orally infected with C. parvum oocysts (˜1×10^5). The infection was monitored by qPCR of feces with primers specific for C. parvum and data are shown as number of oocysts milligram^−1 of feces. Six days following infection and upon confirmation of parasite shedding by qPCR, the three compounds, negative and positive control were orally administered at 50 mg·kg^−1 (body weight) every 24 h for 4 days. (FIGS. 4A-D). […] We then performed a dose-ranging study with Compound 11 using the same immunocompromised mouse model and dosing regimens of 5, 20 and 40 mg·kg^−1 every 24 h for 4 days or 10 mg·kg^−1 every 24 h for 7 days. Mice were monitored for an additional 14 days for relapse of infection.

[1] = tested on: C. parvum Iowa isolate (Bunch Grass Farms); experiment: C. parvum time-kill curve assay in HCT-8 cells; format: cell-based, Cryptosporidium parvum
Experimental: Time-kill curve assays were performed in 384-well plates using C. parvum Iowa isolate oocysts (Bunch Grass Farms, Deary, Id.) following infection of HCT-8 cell monolayers as described in Jumani, R. S. et al. Antimicrobial agents and chemotherapy 62, e01505-01517 (2018), hereby incorporated by reference in its entirety. […] Single-phase exponential decay curves were fit using GraphPad Prism software version 6.01 after normalizing the percentage of host cells infected to the vehicle control value at each time point, which isolates the effect of compound treatment from the spontaneous reduction in parasite numbers that occurs in this culture system.

[2] = tested on: C. parvum mutant transgenic PheRS (mut482V); experiment: microbe, parasite or virus in culture; format: cell-based, Cryptosporidium parvum
Experimental: The in vitro drug susceptibility assay using transgenic parasites expressing Nluc was performed as described in Vinyak et al. Briefly, host intestinal epithelial adenocarcinoma (HCT-8) cells grown in 96-well plates were infected with purified transgenic Nluc-expressing oocysts (1,000 oocysts per well) and incubated with different concentrations of Compound 11 for 48 hours. Culture supernatant was discarded from the wells after 48 hours, and 200 μl of NanoGlo lysis buffer containing 1:50 of NanoGlo substrate (Promega) was added to the wells. Lysates were transferred to white 96-well plates and luminescence was measured on a Glomax luminescence reader (Promega). EC50 values were calculated in GraphPad Prism software v7.
Oocysts from the mutant (mut482V) and wild type (wtL482) transgenic lines were purified as well as the parent strain (Bunchgrass) used to generate the transgenics. Sporozoites were excised from these oocysts and used to infect 96 well format HCT-8 cultures to perform in vitro drug susceptibility assays. Cultures were incubated for 48 hours in the presence of varying concentrations of Compound 11 and parasite growth was measured by establishing whole well luciferase activity to calculate EC50 values for each strain.

C. parvum (Iowa isolate) = experiment: EdU incorporation (DNA synthesis) assay of intracellular development in HCT-8 cells; format: cell-based, Cryptosporidium parvum; conditions: 2×EC90; FIG. 6A legend says EC90
Experimental: DNA synthesis was assayed during intracellular development of C. parvum (Iowa isolate) within HCT-8 cells by measuring incorporation of the thymidine analogue 5-ethynyl-2′-deoxyuridine (EdU) using epifluorescence microscopy as described in Jumani, R. S. et al. Nat Commun 10, 1862, doi:10.1038/s41467-019-09880-w (2019), hereby incorporated by reference in its entirety. HCT-8 cells were grown to >90% confluence in 96-well plates coated with 50 μg mL^−1 fibronectin (BD Pharmingen, catalog #354008), and then infected using the method described above with ˜5.5×10^4 C. parvum Iowa isolate oocysts per well. Compound 11 was added at 2×EC90 3 hours after infection, followed by incubation for 6 hours and then addition of […] EdU. After incubation for two more hours, the monolayers were washed and fixed with 4% formaldehyde in saline. Cells were then permeabilized, and stained with FITC-Vicia villosa lectin, Hoechst 33258, and for incorporation of EdU using the Click-iT assay kit (Thermo Fisher Scientific). Images were acquired by focusing on the parasite focal plane on top of the host cell monolayer using a 40× objective (0.7 NA), and parasitophorous vacuoles and EdU positive vacuoles were quantified using NIH ImageJ software.

COc1ccc(NC(=O)N2CCCCN3[C@H](CN(C)C)[C@H](c4ccc(C#Cc5ccccc5)cc4)[C@@H]3C2)cc1 [Compound 11, (8R,9S,10S)-10-((dimethylamino)methyl)-N-(4-methoxyphenyl)-9-(4-(phenylethynyl)phenyl)-1,6-diazabicyclo[6.2.0]decane-6-carboxamide]
CC50 (HepG2 cytotoxicity): 5 µM | oocyst shedding at follow-up for relapse (C. parvum; 10 mg/kg every 24 h for 7 days, monitored an additional 14 days): no oocyst shedding was observed | log reduction in oocysts·mg^−1 stool (C. parvum; oral, 50 mg/kg every 24 h for 4 days): ~3 log | reduction in oocyst shedding (oocysts per mg feces) (C. parvum; oral, 50 mg/kg every 24 h for 4 days, 50 mg/kg): significant reduction in oocyst shedding; also recorded: greatest reduction in oocysts | parasites per nucleus at 80 h ([1]; compound at EC50): ~60% | parasites per nucleus at 80 h ([1]; compound at EC90): ~30% | time required to eliminate 99.9% of parasites ([1]; normalized to vehicle control): ~95 h | fold shift in EC50, mutant transgenic vs wild type transgenic [2]: 23 fold | pEC50 ([2]; Cryptosporidium parvum, HCT-8, 48 h, read-out: EC50, mutant transgenic): 5.98 | intracellular parasite development (EdU incorporation) (C. parvum (Iowa isolate)): strongly inhibited intracellular parasite development

From patent publication US20230009323A1, “COMPOUNDS AND METHODS FOR THE TREATMENT OF CRYPTOSPORIDIOSIS” (The Broad Institute, Inc., priority 2019, published 2023)
